Reference: US8877463B2, “Rhodanobacter ginsenosidimutans KCTC22231T-derived ginsenoside glycosidase, and use thereof” (Korea Research Institute of Bioscience and Biotechnology, priority 2009, dated 2014)

Columns and labels:
[1] = system: Bgl3054; assay: Substrate preference with chromogenic ONP and PNP substrates; type: biochemical, Rhodanobacter ginsenosidimutans KCTC22231T; conditions: 2.0 mM substrate, 37° C., 5 minutes; for activity of Bgl3054 for the substrate, rank order after ONP-β-D-fucopyranoside: descending order as listed: PNP-fucopyranoside, oNP-glucopyranoside, ONP-galactopyranoside, PNP-glucopyranoside, PNP-arabinopyranoside, PNP-galactopyranoside
Description: A free PNP-type substrate has a yellow color, but turns colorless when it binds with various sugars. The characteristics of glucosidase-type enzymes were analyzed using this principle. For example, PNPGlc is a colorless compound prepared by beta linkage of PNP and glucose, but free PNP catalyzed by beta-glucosidase has a yellow color. Thus, when a color change occurs by use of PNPGlc as a substrate, the enzyme is determined as a beta-glucosidase. In addition, when PNP-β-D-galactopyranoside is metabolized by an enzyme to produce yellow color, it is determined as β-D-galactopyranosidase. The color becomes darker according to characteristics and concentrations of the substrate, and thus it is possible to measure the concentration of the enzyme using a spectrometer.
1 activity unit was defined as the release of o-nitrophenol or p-nitrophenol per minute. For analysis of substrate preference, 2.0 mM chromogenic ONP and PNP (p-nitrophenyl) were used as the substrates, and incubated in 50 mM sodium phosphate buffer at 37° C. for 5 minutes.
The analyzed substrates (Sigma) were PNP-β-D-glucopyranoside, PNP-β-D-galactopyranoside, PNP-β-D-fucopyranoside, PNP-N-acetyl-β-D-glucosaminide, PNP-β-L-arabinopyranoside, PNP-β-D-mannopyronoside, PNP-β-D-xylopyranoside, PNP-β-D-glucopyranoside, PNP-β-L-arabinofuranoside, PNP-β-L-arabinopyranoside, PNP-β-D-rhamnopyranoside, PNP-β-D-mannopyranoside, and PNP-β-D-xylopyranoside, and o-nitrophenol[ONP]-β-D-glucopyranoside, ONP-β-D-galactopyranoside, ONP-β-D-fucopyranoside, and ONP-β-D-galactopyranoside.

[2] = system: ginsenoside glycosidase (Bgl3054); assay: Kinetic studies of pNPGlc hydrolysis (Km, Vmax); type: biochemical, Rhodanobacter ginsenosidimutans KCTC22231T; conditions: pNPGlc 0.1 mM to 0.6 mM, 37° C., 20 minutes, absorbance 405 nm
Description: Further, kinetic studies were performed with freshly purified enzyme using pNPGlc (p-nitrophenyl-β-D-glucopyranoside; Sigma) at the concentrations of from 0.1 mM to 0.6 mM. Its absorbance at 405 nm was monitored at 37° C. for 20 minutes. The resulting data were used to determine Km and Vmax using the Enzyme Kinetics Program reported by Cleland.
Km and Vmax for the hydrolysis of pNPGlc (p-nitrophenyl-β-D-glucopyranoside; Sigma) by ginsenoside glycosidase were calculated using the Enzyme Kinetics Program reported by Cleland.

[3] = system: Bgl3054 ginsenoside glycosidase; assay: Specificity and selectivity of the enzyme for hydrolysis of ginsenosides (TLC, HPLC, NMR); type: biochemical, Rhodanobacter ginsenosidimutans KCTC22231T; conditions: 0.2U enzyme, 50 mM sodium phosphate buffer pH 7.0, 0.1% (w/v) substrate, 37° C.
Description: In order to analyze the specificity and selectivity of the enzyme for the hydrolysis of glucose at the C-3 and C-20 positions of ginsenoside, ginsenoside Rb1, Rb2, Rc, Rd, and Rg3 were used as the substrates. Each reaction mixture containing 0.2U enzyme, 50 mM sodium phosphate buffer 0.1% (w/v) (pH 7.0), and the substrate was incubated at 37° C. Each sample was withdrawn at regular intervals, and an equal volume of water-saturated butanol was added to stop the reaction. The n-butanol fraction was evaporated to dryness, and residual material was dissolved in CH3OH and then examined by TLC HPLC or NMR analysis, and the results are shown in FIGS. 10, 11 and 12.

[4] = molecular target: ginsenoside glycosidase (Bgl3054) (Microbacterium sp. Gsoil167, UniProt L0ELG0); assay: Metal and chemical agent effects on enzymatic activity; type: biochemical, Rhodanobacter ginsenosidimutans KCTC22231T; conditions: at the concentration of 10 mM or more; room temperature 30 minutes; pNPGlc substrate
Description: Specific activity was measured using 90 μl of 50 mM sodium phosphate buffer containing 2.0 mM pNPGlc (p-nitrophenyl-β-D-glucopyranoside; Sigma) at pH 7.0, and 10 μl of the diluted purified enzyme was treated at 37° C. for 20 minutes before initiation of the reaction, followed by incubation. 0.1 ml of 1 M Na2CO3 was treated for 5 minutes to terminate the reaction, and the concentration of p-nitrophenol was immediately measured at 405 nm. One unit of activity was defined as the amount of enzyme that released 1 μmol of p-nitrophenol per minute. Specific activity is expressed in units per milligram protein. Protein concentration was measured using a Bio-Rad protein staining reagent according to the protocol. All analyses were performed at least three times.
Ginsenoside glycosidase was incubated at room temperature for 30 minutes in 1 mM and 10 mM (final concentration) of ZnCl2, MnCl2, CaCl2, CoCl2, MgCl2, EDTA, NaCl, KCl, CuCl2, DTT, SDS, and mercaptoethanol, and pNPGlc (p-nitrophenyl-β-D-glucopyranoside; Sigma) was used as a substrate to measure the activity. The resulting value was represented as a percentage to the obtained activity upon lack of the compounds, and is shown in Table 1.

[5] = system: ginsenoside glycosidase Bgl3054; assay: Reaction of expressed ginsenoside glycosidase with Rb1 solution, TLC analysis; type: biochemical, Rhodanobacter ginsenosidimutans KCTC22231T; conditions: 1 mg/ml Rb1 solution in 50 mM sodium phosphate
Description: E.coil C41 (DE3) containing overexpressed plasmid was cultured in LB-ampicillin media at 37° C. when the OD value at 600 nm reached 0.6, and treated with 0.5 mM isopropyl-β-D-thiogalactopyranoside for 12 hours to induce protein expression. The bacterial cells were obtained by centrifugation at 4° C. and 5,000×g for 20 minutes. The cell pellet was resuspended in a solution (suspension) consisting of 50 mM sodium phosphate, 5 mM EDTA, and 1% Triton X-100 (pH 7.0) and subjected to ultrasonification. Ginsenoside glycosidase was completely hydrated without formation of insoluble precipitate, and ginsenoside glycosidase was reacted with 1 mg/ml Rb1 solution in 50 mM sodium phosphate, and TLC analysis was performed.

[6] = type: biochemical; conditions: 2.0 mM pNPGlc, 50 mM buffers
Description: The effect of pH on the enzymatic activity was measured. 2.0 mM pNPGlc (p-nitrophenyl-β-D-glucopyranoside; Sigma) was used as a substrate, and pH was adjusted using the following buffer (50 mM).
pH range of 2 to 10: KCl-HCl (pH 2), glycine-HCl (pH 3), sodium acetic acid (pH 4 and 5), sodium phosphate (pH 6 and 7), Tris-HCl (pH 8 and 9) and glycine-sodium hydroxide (pH 10) Further, the effect of pH on the enzymatic stability was measured. The enzyme was incubated in each of the above mentioned buffers at 4° C. for 24 hours, and then pHPGlc was analyzed in 50 mM potassium buffer to measure the enzymatic stability according to pH change. Residue activity was analyzed according to a standard analytical procedure, and the results are shown in FIG. 6 as an activity probability obtained at the optimum pH.

[7] = type: biochemical; conditions: 4-90° C., 2.0 mM pNPGlc, 50 mM potassium phosphate buffer, optimum pH, 5 minutes
Description: The effect of temperature on the enzymatic activity was measured. The temperature was adjusted between 4-90° C., and 2.0 mM pNPGlc (p-nitrophenyl-β-D-glucopyranoside; Sigma) was used to analyze the temperature-dependent activity in the 50 mM potassium phosphate buffer at the optimum pH for 5 minutes.
Further, the equivalent amount of enzyme was incubated in 50 mM potassium phosphate buffer within the same temperature range for 30 minutes to analyze the temperature stability. The sample was cooled in ice for 10 minutes, and the residual activity was measured according to a standard analytical procedure, and the results are shown in FIG. 7.

Molecule: O=[N+]([O-])c1ccc(O[C@H]2OC[C@H](O)[C@H](O)[C@H]2O)cc1 [PNP-β-L-arabinopyranoside]
- activity of Bgl3054 for the substrate, rank order after ONP-β-D-fucopyranoside [1]: higher activity in this order

Molecule: O=[N+]([O-])c1ccc(O[C@@H]2O[C@H](CO)[C@@H](O)[C@H](O)[C@H]2O)cc1 [pNPGlc, p-nitrophenyl-β-D-glucopyranoside]
- activity of Bgl3054 for the substrate, rank order after ONP-β-D-fucopyranoside [1]: higher activity in this order
- Vmax for the hydrolysis of pNPGlc by ginsenoside glycosidase [2]: 0.3177(±0.01654) mmol*min−1*mg of protein-1

Molecule: CC(C)=CCC[C@](C)(O[C@@H]1O[C@H](CO)[C@@H](O)[C@H](O)[C@H]1O)[C@H]1CC[C@]2(C)[C@@H]1[C@H](O)C[C@@H]1[C@@]3(C)CC[C@H](O[C@@H]4O[C@H](CO)[C@@H](O)[C@H](O)[C@H]4O[C@@H]4O[C@H](CO)[C@@H](O)[C@H](O)[C@H]4O)C(C)(C)[C@@H]3CC[C@]12C [Rd, ginsenoside Rd]
- bioconversion of the ginsenoside substrate by the enzyme [3]: converted into F2

Molecule: CCCCCCCCCCCCOS(=O)(=O)[O-].[Na+] [SDS]
- effect on the enzymatic activity [4]: inhibitory effect

Molecule: C[C@H]1O[C@@H](Oc2ccccc2[N+](=O)[O-])[C@H](O)[C@@H](O)[C@H]1O [ONP-β-D-fucopyranoside]
- activity of Bgl3054 for the substrate (substrate preference) ([1]; 50 mM sodium phosphate buffer): highest activity

Molecule: C[C@H]1O[C@@H](Oc2ccc([N+](=O)[O-])cc2)[C@H](O)[C@@H](O)[C@H]1O [PNP-β-D-fucopyranoside]
- activity of Bgl3054 for the substrate, rank order after ONP-β-D-fucopyranoside [1]: higher activity in this order

Molecule: CC(C)=CCC[C@](C)(O[C@@H]1O[C@H](CO[C@@H]2O[C@H](CO)[C@@H](O)[C@H](O)[C@H]2O)[C@@H](O)[C@H](O)[C@H]1O)[C@H]1CC[C@]2(C)[C@@H]1[C@H](O)C[C@@H]1[C@@]3(C)CC[C@H](O[C@@H]4O[C@H](CO)[C@@H](O)[C@H](O)[C@H]4O[C@@H]4O[C@H](CO)[C@@H](O)[C@H](O)[C@H]4O)C(C)(C)[C@@H]3CC[C@]12C [Ginsenoside Rb1, ginsenoside Rb1]
- bioconversion of the ginsenoside substrate by the enzyme [3]: converted into Rd
- conversion of ginsenoside by Bgl3054 (TLC) [5]: into F2 via Rd

Molecule: CC(C)=CCC[C@](C)(O[C@@H]1O[C@H](CO[C@@H]2O[C@@H](CO)[C@H](O)[C@H]2O)[C@@H](O)[C@H](O)[C@H]1O)[C@H]1CC[C@]2(C)[C@@H]1[C@H](O)C[C@@H]1[C@@]3(C)CC[C@H](O[C@@H]4O[C@H](CO)[C@@H](O)[C@H](O)[C@H]4O[C@@H]4O[C@H](CO)[C@@H](O)[C@H](O)[C@H]4O)C(C)(C)[C@@H]3CC[C@]12C [Ginsenoside Rc, ginsenoside Rc]
- bioconversion of the ginsenoside substrate by the enzyme [3]: converted into compound Mc1

Molecule: O=[N+]([O-])c1ccccc1O[C@@H]1O[C@H](CO)[C@@H](O)[C@H](O)[C@H]1O [oNP-β-D-glucopyranoside, o-nitrophenol[ONP]-β-D-glucopyranoside]
- activity of Bgl3054 for the substrate, rank order after ONP-β-D-fucopyranoside [1]: higher activity in this order

Molecule: CC(C)=CCC[C@](C)(O[C@@H]1O[C@H](CO[C@@H]2OC[C@H](O)[C@H](O)[C@H]2O)[C@@H](O)[C@H](O)[C@H]1O)[C@H]1CC[C@]2(C)[C@@H]1[C@H](O)C[C@@H]1[C@@]3(C)CC[C@H](O[C@@H]4O[C@H](CO)[C@@H](O)[C@H](O)[C@H]4O[C@@H]4O[C@H](CO)[C@@H](O)[C@H](O)[C@H]4O)C(C)(C)[C@@H]3CC[C@]12C [Rb2, ginsenoside Rb2]
- bioconversion of the ginsenoside substrate by the enzyme [3]: converted into Rd

Molecule: O=[N+]([O-])c1ccccc1O[C@@H]1O[C@H](CO)[C@H](O)[C@H](O)[C@H]1O [ONP-β-D-galactopyranoside]
- activity of Bgl3054 for the substrate, rank order after ONP-β-D-fucopyranoside [1]: higher activity in this order

Molecule: O=[N+]([O-])c1ccc(O[C@@H]2O[C@H](CO)[C@H](O)[C@H](O)[C@H]2O)cc1 [PNP-β-D-galactopyranoside]
- activity of Bgl3054 for the substrate, rank order after ONP-β-D-fucopyranoside [1]: higher activity in this order

B1: Bgl3054: Rhodanobacter ginsenosidimutans KCTC22231T-derived ginsenoside glycosidase protein, 433 amino acids, SEQ ID NO. 2 (protein)
chain: GLGRRRASMMRGTPMTNPFPQDFLWGVATAGHQVEGNNVNSDVWFLEHLPGTIFAEPSGDAVDHYHRYREDIALIAGLGFTSYRFSVEWARIEPEEGHFSVAALDHYKRVLEACREHGLTPVVTFHHFASPLWLLRSGGWEGERTPELFARYCGRVMAHLGDLIGVACTLNEPNLPWLLESFGIGGEAPENRGKVPMWAAAAQRLGVDASTVAPFQFCSTEAGFNVKLAAHKAATEAIKAHRPDLRVGWTLANSDIQSVPGGEEIAAQVRRDVNERFLEASRGDDFVGIQTYGRTVYGPDGHAPAPEGVAVNQMGEEIYPQALEATIREAWRVAGIPVMVTENGLATEDDTQRVAYLRTAVDGVASCLADGIDVRGYIAWTAFDNFEWIFGYGPKFGLIAVDRSTQERTPKESARWLGNFARQQAPAEAPQPA
modifications: Bgl3054
- pH of highest activity [6]: 7.0
- temperature of maximum activity [7]: 40-55 °C
